Molecular target: T1, CDK2/Cyclin E (Homo sapiens, UniProt P24941)
T1 construct: The open reading frames of CDK2 and Cyclin E were isolated; made in house; host or cells: Sf21 (Spodoptera frugiperda) insect cells, baculovirus co-infection; the GST-Rb substrate was made in E. coli BL21 (DE3) pLysS
Test: in vitro kinase Scintillation Proximity Assay, incorporation of [γ-33-P]-ATP into GST-Rb
Assay type: biochemical
Conditions: GST-Rb substrate, 0.2 μM ATP, 60 minutes at room temperature
Experimental: The compounds were tested in an in vitro kinase assay in 96 well format using Scintillation Proximity Assay (SPA - obtained from Amersham) for measuring incorporation of [γ-33-P]-Adenosine Triphosphate into a test substrate (GST-Retinoblastoma protein; GST-Rb). In each well was placed the compound to be tested (diluted in DMSO and water to correct concentrations) and in control wells either roscovitine as an inhibitor control or DMSO as a positive control.
Approximately 0.2 μl of CDK2/Cyclin E partially-purified enzyme (amount dependent on enzyme activity) diluted in 25 μl incubation buffer was added to each well then 20 μl of GST-Rb/ATP/ATP33 mixture (containing 0.5 μg GST-Rb and 0.2 μM ATP and 0.14 μCi [γ-33-P]-Adenosine Triphosphate in incubation buffer), and the resulting mixture shaken gently, then incubated at room temperature for 60 minutes.
To each well was then added 150 μL stop solution containing (0.8 mg/well of Protein A-PVT SPA bead (Amersham)), 20 pM/well of Anti-Glutathione Transferase, Rabbit IgG (obtained from Molecular Probes), 61 mM EDTA and 50 mM HEPES pH 7.5 containing 0.05% sodium azide.
The plates were sealed with Topseal-S plate sealers, left for two hours then spun at 2500 rpm, 1124 xg., for 5 minutes. The plates were read on a Topcount for 30 seconds per well.
The incubation buffer used to dilute the enzyme and substrate mixes contained 50 mM HEPES pH7.5, 10 mM MnCl2, 1 mM DTT, 100 μM Sodium vanadate, 100 μM NaF, 10 mM Sodium Glycerophosphate, BSA (1 mg/ml final).
In this assay only part of the retinoblastoma protein (Science 1987 Mar. 13;235(4794):1394-1399; Lee W. H., Bookstein R., Hong F., Young L. J., Shew J. Y., Lee E. Y.) was used, fused to a GST tag. […]
The open reading frames of CDK2 and Cyclin E were isolated by reverse transcriptase-PCR using HeLa cell and activated T cell mRNA as a template and cloned into the insect expression vector pVL1393 (obtained from Invitrogen 1995 catalogue number: V1392-20). […]

SMILES	IC50 [nM]
c1ccc(Nc2nccc(-c3cnc4n3CCCC4)n2)cc1 [Example 2, 2-anilino-4-(5,6,7,8-tetrahydroimidazo[1,2-a]pyridin-3-yl)pyrimidine]	21
c1ccc(Nc2nccc(-c3cnc4n3CCOC4)n2)cc1 [Example 5, 2-Anilino-4-(5,6-dihydro-8H-imidazo[2,1-c][1,4]oxazin-3-yl)pyrimidine]	42
COCCNS(=O)(=O)c1ccc(Nc2nccc(-c3cnc4n3CCOC4)n2)cc1 [Example 9]	13
